Reference: the supplement of paper PMC10307832

Columns and labels:
Test in all cases: relative viability (nuclei count vs DMSO), 5 days (fraction); higher = more cells survive
AZD8055 + AZD7762 = compound: COc1ccc(-c2ccc3c(N4CCOC[C@@H]4C)nc(N4CCOC[C@@H]4C)nc3n2)cc1CO [AZD8055] + NC(=O)Nc1cc(-c2cccc(F)c2)sc1C(=O)N[C@H]1CCCNC1 [AZD7762] (partner 0.2 µM)
Outline: (§1)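 The day after seeding in 1536-well plates, lung cancer cell lines were treated by pin tool with a single drug, or with a fixed anchor-drug dose together with five library-drug doses (not always all listed) in √10 steps. After 5 days, a combined fix-and-stain solution (final 0.05% Triton X-100, 1% formaldehyde, 1 ug/ml Hoechst) was added. Nuclei counted on 4× images gave relative viability as treated counts over vehicle counts, reported as the median of duplicate plates.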

AZD8055 + Vorinostat = compound: COc1ccc(-c2ccc3c(N4CCOC[C@@H]4C)nc(N4CCOC[C@@H]4C)nc3n2)cc1CO [AZD8055] + O=C(CCCCCCC(=O)Nc1ccccc1)NO [Vorinostat] (partner 1 µM)
Outline: as §1

AZD8055 + Foretinib = compound: COc1ccc(-c2ccc3c(N4CCOC[C@@H]4C)nc(N4CCOC[C@@H]4C)nc3n2)cc1CO [AZD8055] + COc1cc2c(Oc3ccc(NC(=O)C4(C(=O)Nc5ccc(F)cc5)CC4)cc3F)ccnc2cc1OCCCN1CCOCC1 [Foretinib] (partner 0.25 µM)
Outline: as §1

AZD8055 + Pictilisib = compound: COc1ccc(-c2ccc3c(N4CCOC[C@@H]4C)nc(N4CCOC[C@@H]4C)nc3n2)cc1CO [AZD8055] + CS(=O)(=O)N1CCN(Cc2cc3nc(-c4cccc5[nH]ncc45)nc(N4CCOCC4)c3s2)CC1 [Pictilisib] (partner 1 µM)
Outline: as §1

Cell Line | relative viability (AZD8055 + AZD7762; first compound 0.01 µM) | relative viability (AZD8055 + AZD7762; first compound 0.03162 µM) | relative viability (AZD8055 + AZD7762; first compound 0.1 µM) | relative viability (AZD8055 + AZD7762; first compound 0.3162 µM) | relative viability (AZD8055 + AZD7762; first compound 1 µM) | relative viability (AZD8055 + Vorinostat; first compound 0.01 µM) | relative viability (AZD8055 + Vorinostat; first compound 0.03162 µM) | relative viability (AZD8055 + Vorinostat; first compound 0.1 µM) | relative viability (AZD8055 + Vorinostat; first compound 0.3162 µM) | relative viability (AZD8055 + Vorinostat; first compound 1 µM) | relative viability (AZD8055 + Foretinib; first compound 0.01 µM) | relative viability (AZD8055 + Foretinib; first compound 0.03162 µM) | relative viability (AZD8055 + Foretinib; first compound 0.1 µM) | relative viability (AZD8055 + Foretinib; first compound 0.3162 µM) | relative viability (AZD8055 + Foretinib; first compound 1 µM) | relative viability (AZD8055 + Pictilisib; first compound 0.01 µM) | relative viability (AZD8055 + Pictilisib; first compound 0.03162 µM) | relative viability (AZD8055 + Pictilisib; first compound 0.1 µM) | relative viability (AZD8055 + Pictilisib; first compound 0.3162 µM) | relative viability (AZD8055 + Pictilisib; first compound 1 µM)
NCI-H441 | 1.24 | 1.14 | 0.837 | 0.562 | 0.382 | 0.985 | 0.72 | 0.534 | 0.346 | 0.246 | 0.925 | 0.94 | 0.68 | 0.349 | 0.37 | 0.518 | 0.483 | 0.375 | 0.215 | 0.267
NCI-H1793 | 0.379 | 0.264 | 0.197 | 0.145 | 0.127 | 0.567 | 0.387 | 0.271 | 0.188 | 0.224 | 0.457 | 0.35 | 0.222 | 0.189 | 0.183 | 0.288 | 0.268 | 0.177 | 0.238 | 0.156
NCI-H23 | 0.202 | 0.245 | 0.233 | 0.161 | 0.14 | 0.44 | 0.457 | 0.449 | 0.235 | 0.251 | 1.02 | 0.841 | 0.584 | 0.451 | 0.347 | 0.472 | 0.314 | 0.314 | 0.251 | 0.293
HARA |  | 0.384 | 0.406 | 0.487 | 0.306 | 0.574 | 0.527 | 0.441 | 0.24 | 0.227 | 0.983 | 0.762 | 0.374 | 0.272 | 0.258 | 0.372 | 0.257 | 0.198 | 0.24 | 0.17
NCI-H1792 | 0.589 | 0.291 | 0.21 | 0.0685 | 0.0707 |  |  |  |  |  |  |  |  |  |  | 0.235 | 0.229 | 0.142 | 0.112 | 0.094
NCI-H1703 | 0.127 | 0.125 | 0.115 | 0.115 | 0.095 |  |  |  |  |  | 0.34 | 0.32 | 0.306 | 0.301 | 0.226 | 0.24 | 0.263 | 0.257 | 0.232 | 0.255
NCI-H2342 | 0.422 | 0.459 | 0.308 | 0.376 | 0.43 | 0.766 | 0.702 | 0.651 | 0.501 | 0.53 | 0.999 | 1.05 | 0.801 | 0.538 | 0.578 |  |  |  |  | 
CAL-12T | 0.695 | 0.8 | 0.733 | 0.421 | 0.339 | 0.954 | 0.631 | 0.598 | 0.276 | 0.217 | 1.25 | 1.22 | 1.01 | 0.414 | 0.279 | 0.393 | 0.341 | 0.349 | 0.322 | 0.213
NCI-H727 | 0.727 | 0.574 | 0.528 | 0.434 | 0.338 | 1.3 | 1.12 | 1.18 | 0.869 | 0.778 | 0.713 | 0.89 | 0.717 | 0.307 | 0.394 | 0.4 | 0.379 | 0.28 | 0.225 | 0.283
NCI-H2085 | 0.994 | 0.848 | 0.706 | 0.409 | 0.362 | 0.645 | 0.554 | 0.49 | 0.44 | 0.363 | 0.945 | 0.919 | 0.602 | 0.278 | 0.329 | 0.458 | 0.394 | 0.347 | 0.319 | 0.346
NCI-H1395 | 0.384 | 0.405 | 0.443 | 0.34 | 0.419 | 0.683 | 0.448 | 0.621 | 0.422 | 0.461 | 0.982 | 0.774 | 0.835 | 0.505 | 0.528 | 0.587 | 0.535 | 0.636 | 0.478 | 0.425
NCI-H1648 | 0.708 | 0.804 | 0.639 | 0.413 | 0.261 | 0.501 | 0.451 | 0.293 | 0.287 | 0.273 |  |  |  |  |  |  |  |  |  | 
NCI-H460 | 0.831 | 0.51 | 0.607 | 0.137 | 0.092 | 1.02 | 0.629 | 0.498 | 0.0504 | 0.0551 | 1.12 | 1.09 | 0.812 | 0.376 | 0.206 | 0.338 | 0.295 | 0.262 | 0.226 | 0.264
A549 |  |  |  |  |  |  |  |  |  |  | 0.929 | 0.831 | 0.638 | 0.123 | 0.0603 | 0.395 | 0.345 | 0.189 | 0.123 | 0.105
IA-LM |  |  |  |  |  | 0.814 | 0.758 | 0.524 | 0.172 | 0.127 | 0.933 | 0.659 | 0.567 | 0.169 | 0.126 | 0.221 | 0.217 | 0.118 | 0.0814 | 0.0826
EKVX | 0.783 | 0.594 | 0.605 | 0.375 | 0.29 | 0.68 | 0.729 | 0.519 | 0.422 | 0.366 | 0.872 | 1.25 | 0.731 | 0.702 | 0.367 | 0.485 | 0.44 | 0.3 | 0.245 | 0.169
ChaGo-K-1 | 0.957 | 0.832 | 0.828 | 0.703 | 0.645 | 0.769 | 0.673 | 0.741 | 0.631 | 0.541 | 1.07 | 0.862 | 0.81 | 0.61 | 0.621 | 0.817 | 0.848 | 0.801 | 0.49 | 0.346
NCI-H1755 | 0.625 | 0.401 | 0.416 | 0.364 | 0.33 | 0.64 | 0.613 | 0.57 | 0.423 | 0.366 | 0.885 | 0.788 | 0.698 | 0.485 | 0.373 | 0.39 | 0.312 | 0.274 | 0.253 | 0.271
